The record followed here is patent US6723343B2, “Pharmaceutical tramadol salts” (Gruenenthal GmbH, priority 1999, dated 2004).

Structures are written as SMILES.

The conditions of the data set: deionized water, 25° C., stirred for 20 hours, HPLC against tramadol hydrochloride as standard.

Procedure: The solubility of the salts of tramadol and a sugar substitute was determined as follows:
The requisite amount of the salt of tramadol and the appropriate sugar substitute can optionally be determined by preliminary experiments.
After the undissolved salt of tramadol and the appropriate sugar substitute had been allowed to settle out, the clear supernatant was pipetted off and centrifuged for 5 minutes at a speed of at least 3000 rpm. Part of the resulting clear supernatant is transferred to an HPLC sample vial and the concentration of the salt of tramadol and the appropriate sugar substitute is determined against tramadol hydrochloride as standard.

Regarding `COc1cccc(C2(O)CCCCC2CN(C)C)c1.O=C1NS(=O)(=O)c2ccccc21` (stereo not shown) [tramadol saccharinate], the solubility in water worked out at 22.5 mg/mL.
